The values that follow come from patent publication US20080234262A1 (Wyeth, priority 2007, published 2008).

Read-outs that look alike come from different tables or passages of the source.

By IC50 is commonly meant the concentration that gives 50% inhibition.

In one assay the test system is breast line MDA468. As to the kind of experiment: In vitro cell culture growth assay (MTS), MDA468. The settings on record: Homo sapiens, 72 h, MDA468 cells, three days after drug treatment. Type of assay: cell-based, human. A digest of the protocol:
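Cells were plated and, one day later, exposed to inhibitors for three days; viable cell density was then measured by metabolic conversion of MTS dye, read as absorbance at 490 nm. Growth is expressed as percent of vehicle-treated control cells on the same plate.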

The next assay concerns prostate line LNCap. The assay is described as follows: In vitro cell culture growth assay (MTS), LNCap. The settings on record: Homo sapiens, 72 h, LNCap cells, three days after drug treatment. In kind it is cell-based, human.
The target of the next assay is PI3K (Homo sapiens, UniProt P42336). The assay is described as follows: Fluorescence polarization assay for PI3K.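 Also: PI3K kinase reaction on PIP2 with ATP, 30-60 min, product sensed by GST-GRP with red probe in fluorescence polarization (mP), controls without enzyme and at zero time.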 Type of assay: biochemical. (In general: Polarisation of emitted light reports the rotation of a fluorescent probe.)
Chain of PI3K (P42336 whole entry): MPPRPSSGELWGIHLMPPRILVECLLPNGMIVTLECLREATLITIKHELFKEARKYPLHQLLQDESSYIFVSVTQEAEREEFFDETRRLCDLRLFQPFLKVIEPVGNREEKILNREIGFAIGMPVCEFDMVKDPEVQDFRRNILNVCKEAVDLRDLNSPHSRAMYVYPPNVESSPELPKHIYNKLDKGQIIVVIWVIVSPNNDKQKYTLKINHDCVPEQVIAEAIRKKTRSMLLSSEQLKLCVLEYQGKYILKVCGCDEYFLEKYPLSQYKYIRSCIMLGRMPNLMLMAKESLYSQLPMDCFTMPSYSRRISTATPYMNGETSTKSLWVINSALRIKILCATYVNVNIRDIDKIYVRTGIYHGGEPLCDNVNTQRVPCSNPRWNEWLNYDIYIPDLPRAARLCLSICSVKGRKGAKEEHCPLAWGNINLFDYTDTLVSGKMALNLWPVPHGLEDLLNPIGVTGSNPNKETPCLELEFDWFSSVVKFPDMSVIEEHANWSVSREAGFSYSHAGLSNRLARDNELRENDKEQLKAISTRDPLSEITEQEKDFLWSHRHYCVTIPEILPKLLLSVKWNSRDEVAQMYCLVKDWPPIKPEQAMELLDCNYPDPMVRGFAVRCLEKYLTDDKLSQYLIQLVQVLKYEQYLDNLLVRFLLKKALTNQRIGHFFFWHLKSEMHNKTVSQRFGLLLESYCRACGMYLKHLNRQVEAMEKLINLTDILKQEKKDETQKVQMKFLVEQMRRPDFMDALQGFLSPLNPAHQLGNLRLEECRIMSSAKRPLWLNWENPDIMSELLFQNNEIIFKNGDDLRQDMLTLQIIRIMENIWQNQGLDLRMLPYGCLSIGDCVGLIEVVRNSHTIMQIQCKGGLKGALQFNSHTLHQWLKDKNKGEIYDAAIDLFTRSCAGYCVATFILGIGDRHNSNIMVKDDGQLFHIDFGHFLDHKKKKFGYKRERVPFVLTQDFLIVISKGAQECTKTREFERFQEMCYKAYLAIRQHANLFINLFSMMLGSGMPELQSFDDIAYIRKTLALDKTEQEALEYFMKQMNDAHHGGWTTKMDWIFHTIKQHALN
Chain of PI3K (P27986 whole entry partner): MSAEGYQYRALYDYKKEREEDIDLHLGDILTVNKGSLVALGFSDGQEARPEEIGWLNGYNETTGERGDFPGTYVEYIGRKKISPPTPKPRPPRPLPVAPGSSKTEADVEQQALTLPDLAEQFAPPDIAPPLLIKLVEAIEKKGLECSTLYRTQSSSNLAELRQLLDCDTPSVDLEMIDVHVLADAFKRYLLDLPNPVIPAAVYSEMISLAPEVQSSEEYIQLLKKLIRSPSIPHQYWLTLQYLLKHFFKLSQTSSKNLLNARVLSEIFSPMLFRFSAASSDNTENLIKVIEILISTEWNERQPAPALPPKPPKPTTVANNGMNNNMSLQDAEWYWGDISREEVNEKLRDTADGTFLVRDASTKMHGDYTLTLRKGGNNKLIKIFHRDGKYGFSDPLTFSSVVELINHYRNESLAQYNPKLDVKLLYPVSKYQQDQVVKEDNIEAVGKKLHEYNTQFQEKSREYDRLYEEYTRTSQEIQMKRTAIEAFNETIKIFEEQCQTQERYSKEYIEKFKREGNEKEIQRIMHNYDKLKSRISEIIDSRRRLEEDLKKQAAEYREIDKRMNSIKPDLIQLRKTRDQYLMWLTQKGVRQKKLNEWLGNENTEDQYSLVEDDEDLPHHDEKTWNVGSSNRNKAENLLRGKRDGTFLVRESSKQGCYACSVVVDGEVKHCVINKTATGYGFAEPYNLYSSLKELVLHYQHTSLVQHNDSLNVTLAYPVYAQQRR

On to `CC(C)C(=O)N1CCC(n2ncc3c(N4CCOCC4)nc(-c4ccc(NC(=O)Nc5ccccn5)cc4)nc32)CC1` [Compound 827, 1-{4-[1-(1-isobutyrylpiperidin-4-yl)-4-morpholin-4-yl-1H-pyrazolo[3,4-d]pyrimidin-6-yl]phenyl}-3-pyridin-2-ylurea], for which the 50% inhibitory concentration (IC50) in the assay with breast line MDA468 came to 16000 nM; in the assay on prostate line LNCap (LNCaP), 600 nM; at PI3K (PI3Kα, read-out: PI3Kα IC50), 2260 nM.

`COC(=O)N1CCC(n2ncc3c(N4CCOCC4)nc(-c4ccc(NC(=O)Nc5ccc(CCN6CCCCC6)cc5)cc4)nc32)CC1` [Compound 915, methyl 4-{4-morpholin-4-yl-6-[4-({[4-(2-piperidin-1-ylethyl)phenyl]carbamoyl}amino)phenyl]-1H-pyrazolo[3,4-d]pyrimidin-1-yl}piperidine-1-carboxylate]: the IC50 in the assay with breast line MDA468 was 25 nM; in the assay with prostate line LNCap (LNCaP) it was 0.77 nM; at PI3K (PI3Kα, read-out: PI3Kα IC50), 26 nM.

Regarding `CNC(=O)Nc1ccc(-c2nc(N3CCOCC3)c3cnn(C4CCN(C(=O)c5cccnc5Cl)CC4)c3n2)cc1` [Compound 425, 1-[4-(1-{1-[(2-chloropyridin-3-yl)carbonyl]piperidin-4-yl}-4-morpholin-4-yl-1H-pyrazolo[3,4-d]pyrimidin-6-yl)phenyl]-3-methylurea], the concentration for half-maximal inhibition (IC50) was determined as 500 nM in the assay with breast line MDA468; 80 nM in the assay on prostate line LNCap (LNCaP); 100 nM on PI3K (PI3Kα, read-out: PI3Kα IC50).

For the molecule `CN(C)CCNC(=O)c1cccc(-c2nc(N3CCOCC3)c3cnn(-c4ccccc4)c3n2)c1` [Compound 104], the half-inhibitory concentration (IC50) in the assay with breast line MDA468 came out at 3300 nM; in the assay with prostate line LNCap (LNCaP), 3700 nM; at PI3K (PI3Kα, read-out: PI3Kα IC50), 244 nM.

For `CCNC(=O)Nc1ccc(-c2nc(N3CCOCC3)c3cnn(C4CCN(C(=O)c5cccnc5)CC4)c3n2)cc1` [Compound 552, 1-ethyl-3-(4-{4-morpholin-4-yl-1-[1-(pyridin-3-ylcarbonyl)piperidin-4-yl]-1H-pyrazolo[3,4-d]pyrimidin-6-yl}phenyl)urea], the IC50 in the assay with breast line MDA468 amounted to 180 nM; in the assay on prostate line LNCap (LNCaP) it was 60 nM; at PI3K (PI3Kα, read-out: PI3Kα IC50), 434 nM.

Regarding `COC(=O)Nc1ccc(-c2nc(N3CCOCC3)c3cnn(C4CCN(CCCCO)CC4)c3n2)cc1` [Compound 744, methyl (4-{1-[1-(4-hydroxybutyl)piperidin-4-yl]-4-morpholin-4-yl-1H-pyrazolo[3,4-d]pyrimidin-6-yl}phenyl)carbamate], the concentration for half-maximal inhibition (IC50) in the assay with breast line MDA468 was determined as 10200 nM; in the assay with prostate line LNCap (LNCaP), 3500 nM; on PI3K (PI3Kα, read-out: PI3Kα IC50) it was 1050 nM.

Take `CNC(=S)Nc1ccc(-c2nc(N3CCOCC3)c3cnn(C4CCN(C(=O)OC)CC4)c3n2)cc1` [Compound 742, methyl 4-[6-(4-{[(methylamino)carbonothioyl]amino}phenyl)-4-morpholin-4-yl-1H-pyrazolo[3,4-d]pyrimidin-1-yl]piperidine-1-carboxylate]: the IC50 amounted to 220 nM in the assay with breast line MDA468; 50 nM with prostate line LNCap (LNCaP); 153 nM on PI3K (PI3Kα, read-out: PI3Kα IC50).

With `CNC(=O)Nc1ccc(-c2nc(N3CCOCC3)c3cnn(C4CCN(Cc5ccc(Cl)cc5)CC4)c3n2)cc1` [Example 394, 1-(4-{1-[1-(4-chlorobenzyl)piperidin-4-yl]-4-morpholin-4-yl-1H-pyrazolo[3,4-d]pyrimidin-6-yl}phenyl)-3-methylurea], the IC50 in the assay with breast line MDA468 was 300 nM; in the assay on prostate line LNCap (LNCaP) it was 60 nM; at PI3K (PI3Kα, read-out: PI3Kα IC50), 18 nM.

As to `C=CCNC(=O)Nc1ccc(-c2nc(N3CCOCC3)c3cnn(C4CCN(Cc5ccccc5)CC4)c3n2)cc1` [Compound 509, 1-allyl-3-{4-[1-(1-benzylpiperidin-4-yl)-4-morpholin-4-yl-1H-pyrazolo[3,4-d]pyrimidin-6-yl]phenyl}urea], the half-inhibitory concentration (IC50) with breast line MDA468 stood at 1800 nM; with prostate line LNCap (LNCaP), 250 nM; on PI3K (PI3Kα, read-out: PI3Kα IC50) it was 268 nM.

Take `O=C(NCCCc1ccccc1)Nc1ccc(-c2nc(N3CCOCC3)c3cnn(C4CCN(Cc5ccccc5)CC4)c3n2)cc1` [Compound 260, 1-{4-[1-(1-benzylpiperidin-4-yl)-4-morpholin-4-yl-1H-pyrazolo[3,4-d]pyrimidin-6-yl]phenyl}-3-(3-phenylpropyl)urea]: the IC50 in the assay on breast line MDA468 came to 60000 nM; in the assay with prostate line LNCap (LNCaP), 4500 nM; at PI3K (PI3Kα, read-out: PI3Kα IC50) it was 7030 nM.

As for `CNC(=O)Nc1ccc(-c2nc(N3CCOCC3)c3cnn(C4CCN(C(=O)c5ccccc5C)CC4)c3n2)cc1` [Example 356, 1-methyl-3-(4-{1-[1-(2-methylbenzoyl)piperidin-4-yl]-4-morpholin-4-yl-1H-pyrazolo[3,4-d]pyrimidin-6-yl}phenyl)urea], the IC50 came to 100 nM in the assay on breast line MDA468; 27 nM with prostate line LNCap (LNCaP); 93 nM at PI3K (PI3Kα, read-out: PI3Kα IC50).

With `CNC(=O)Nc1ccc(-c2nc(N3CCOCC3)c3cnn(C4CCN(C(=O)Oc5ccccc5)CC4)c3n2)cc1` [Compound 755, phenyl 4-(6-{4-[(methylcarbamoyl)amino]phenyl}-4-morpholin-4-yl-1H-pyrazolo[3,4-d]pyrimidin-1-yl)piperidine-1-carboxylate], the concentration for half-maximal inhibition (IC50) in the assay on breast line MDA468 worked out at 160 nM; with prostate line LNCap, 60 nM; at PI3K (PI3Kα IC50, PI3Kα), 16 nM.

As for `Nc1ncc(-c2nc(N3CCOCC3)c3cnn(C4CCN(C(=O)c5cccnc5)CC4)c3n2)cn1` [Example 215, 5-{4-morpholin-4-yl-1-[1-(pyridin-3-ylcarbonyl)piperidin-4-yl]-1H-pyrazolo[3,4-d]pyrimidin-6-yl}pyrimidin-2-amine], the IC50 is 1300 nM in the assay with breast line MDA468; 650 nM in the assay with prostate line LNCap (LNCaP); 37 nM on PI3K (PI3Kα, read-out: PI3Kα IC50).

On to `Nc1ccc(-c2nc(N3CCOCC3)c3cnn(C4CCN(C(=O)c5cccnc5)CC4)c3n2)c(F)c1` [Compound 460, 3-fluoro-4-{4-morpholin-4-yl-1-[1-(pyridin-3-ylcarbonyl)piperidin-4-yl]-1H-pyrazolo[3,4-d]pyrimidin-6-yl}aniline], for which the IC50 was determined as 14000 nM in the assay with breast line MDA468; 4900 nM in the assay on prostate line LNCap (LNCaP); 4030 nM at PI3K (PI3Kα, read-out: PI3Kα IC50).

Take `CNC(=O)Nc1ccc(-c2nc(N3CCOCC3)c3cnn(C4CCN(C(=O)SC)CC4)c3n2)cc1` [Compound 761, S-methyl 4-(6-{4-[(methylcarbamoyl)amino]phenyl}-4-morpholin-4-yl-1H-pyrazolo[3,4-d]pyrimidin-1-yl)piperidine-1-carbothioate]: the IC50 stood at 120 nM in the assay on breast line MDA468; 50 nM in the assay on prostate line LNCap (LNCaP); 72 nM on PI3K (PI3Kα, read-out: PI3Kα IC50).

For `O=C(Nc1ccccc1)Nc1ccc(-c2nc(N3CCOCC3)c3cnn(C4CCN(Cc5cccnc5)CC4)c3n2)cc1` [Example 339, 1-(4-{4-morpholin-4-yl-1-[1-(pyridin-3-ylmethyl)piperidin-4-yl]-1H-pyrazolo[3,4-d]pyrimidin-6-yl}phenyl)-3-phenylurea], the IC50 in the assay with breast line MDA468 stood at 200 nM; with prostate line LNCap (LNCaP), 31 nM; on PI3K (PI3Kα, read-out: PI3Kα IC50), 11 nM.

`COc1cc(-c2nc(N3CCOCC3)c3cnn(C4CCN(Cc5ccccc5)CC4)c3n2)ccc1NC(C)=O` [Compound 182]: the 50% inhibitory concentration (IC50) with breast line MDA468 stood at 4100 nM; with prostate line LNCap (LNCaP), 5000 nM; on PI3K (PI3Kα, read-out: PI3Kα IC50), 3930 nM.

For `C=CC(=O)Nc1ccc(-c2nc(N3CCOCC3)c3cnn(C4CCN(C(=O)C(C)C)CC4)c3n2)cc1` [Compound 947, N-{4-[1-(1-isobutyrylpiperidin-4-yl)-4-morpholin-4-yl-1H-pyrazolo[3,4-d]pyrimidin-6-yl]phenyl}acrylamide], the half-maximal inhibitory concentration (IC50) was found to be 4800 nM in the assay with breast line MDA468; 980 nM in the assay with prostate line LNCap (LNCaP); 1600 nM at PI3K (PI3Kα, read-out: PI3Kα IC50).
